Data from patent US20020155192A1, “Yeast transport isoforms” (priority 2000, published 2002).
Read-outs that look alike come from different tables or passages of the source.

Tests used:
Assay type in all cases: biochemical
[1] = molecular target: T1, Odc1p (Saccharomyces cerevisiae, UniProt Q03028); assay: Efflux of [14C]oxoglutarate from proteoliposomes reconstituted with recombinant Odc1p; conditions: 10 mM oxoglutarate with 30 mM pyridoxal 5′-phosphate and 10 mM bathophenanthroline added together
T1 construct: made in house; host or cells: S. cerevisiae odc1Δodc2Δ (YPH499 background) carrying pYES2-based pODC1; purified from mitochondria on Ni-NTA agarose
T1 sequence (Q03028 1-310): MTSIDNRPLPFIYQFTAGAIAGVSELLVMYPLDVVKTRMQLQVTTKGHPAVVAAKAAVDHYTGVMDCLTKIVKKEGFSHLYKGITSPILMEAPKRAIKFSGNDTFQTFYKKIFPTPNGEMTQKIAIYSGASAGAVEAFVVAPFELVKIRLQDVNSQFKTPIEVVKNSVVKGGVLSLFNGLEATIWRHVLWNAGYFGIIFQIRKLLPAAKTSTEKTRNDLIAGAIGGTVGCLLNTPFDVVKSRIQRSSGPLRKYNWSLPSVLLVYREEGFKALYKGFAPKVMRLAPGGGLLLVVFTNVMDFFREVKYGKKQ
Method: FIG. 4. Efflux of [^14C]oxoglutarate from proteoliposomes. Proteoliposomes were reconstituted with recombinant Odc1p in the presence of 20 mM oxoglutarate, and then the internal substrate pool was labelled by carrier-mediated exchange equilibration. After removal of external substrate by Sephadex G-75 chromatography, the efflux of [^14C]oxoglutarate was started by adding buffer F alone (●) or 10 mM oxoglutarate (▪), or 10 mM oxoglutarate, 30 mM pyridoxal 5′-phosphate and 10 mM bathophenanthroline (□) in the same buffer.
External substrate was removed from proteoliposomes on a Sephadex G-75 column preequilibrated with buffer F (50 mM NaCl and 10 mM PIPES, pH 7.0). […] The external radioactivity was removed on Sephadex G-75 and the internal radioactivity was measured. […] The initial rate of transport was calculated in mmol/min per g protein from the time course of isotope equilibration (13). […] For efflux measurements, the internal substrate pool of the proteoliposomes was made radioactive by carrier-mediated exchange equilibration (13) with 0.1 mM [^14C]oxoglutarate added at high specific radioactivity. After 60 min, the residual external radioactivity was removed by passing the proteoliposomes again through a column of Sephadex G-75. […]

[2] = molecular target: T2, Odc2p (Saccharomyces cerevisiae, UniProt Q99297); assay: Effect of inhibitors and external compounds on the [14C]oxoglutarate/oxoglutarate exchange by proteoliposomes reconstituted with Odc2p; conditions: Odc2p; for inhibition of [14C]oxoglutarate/oxoglutarate exchange (in words): Table III
T2 construct: made in house; host or cells: S. cerevisiae odc1Δodc2Δ (YPH499 background) carrying pYES2-based pODC2; purified from mitochondria on Ni-NTA agarose
T2 sequence (Q99297 1-307): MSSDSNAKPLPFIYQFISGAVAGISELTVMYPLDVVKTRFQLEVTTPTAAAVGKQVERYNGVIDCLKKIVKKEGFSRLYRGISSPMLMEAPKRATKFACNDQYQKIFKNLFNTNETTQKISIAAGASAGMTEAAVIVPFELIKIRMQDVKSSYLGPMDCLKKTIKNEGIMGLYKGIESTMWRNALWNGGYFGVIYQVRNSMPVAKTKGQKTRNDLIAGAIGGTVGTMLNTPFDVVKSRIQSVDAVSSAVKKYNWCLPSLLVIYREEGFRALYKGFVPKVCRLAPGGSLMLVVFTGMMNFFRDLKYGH

[3] = molecular target: T1, Odc1p; assay: Effect of inhibitors and external compounds on the [14C]oxoglutarate/oxoglutarate exchange by proteoliposomes reconstituted with Odc1p; conditions: Odc1p; for Inhibition (%) of [14C]oxoglutarate/oxoglutarate exchange: 20 mM internal oxoglutarate, 0.4 mM [14C]oxoglutarate, 45 seconds, inhibitors 4 mM, except mercurials 10 μM, carboxyatractyloside 0.1 mM, N-ethylmaleimide and α-cyanocinnamate 2 mM; for inhibition of [14C]oxoglutarate/oxoglutarate exchange (in words): Table III
[4] = molecular target: T1, Odc1p; assay: Kinetic constants (Km, Vmax, Ki) of recombinant purified Odc1p in proteoliposomes
Method: (§1) External substrate was removed from proteoliposomes on a Sephadex G-75 column preequilibrated with buffer F (50 mM NaCl and 10 mM PIPES, pH 7.0). Transport at 25° C. was started by adding [^14C]oxoglutarate (unless otherwise indicated) to the proteoliposomes, and terminated by addition of 30 mM pyridoxal 5′-phosphate and 10 mM bathophenanthroline (the “inhibitor-stop” method (13)). In controls, inhibitors were added with the labelled substrate. The external radioactivity was removed on Sephadex G-75 and the internal radioactivity was measured. […] The initial rate of transport was calculated in mmol/min per g protein from the time course of isotope equilibration (13). Various other transport activities were also assayed by the inhibitor-stop method. For efflux measurements, the internal substrate pool of the proteoliposomes was made radioactive by carrier-mediated exchange equilibration (13) with 0.1 mM [^14C]oxoglutarate added at high specific radioactivity. After 60 min, the residual external radioactivity was removed by passing the proteoliposomes again through a column of Sephadex G-75. Efflux was started by adding unlabelled external substrate or buffer F alone and terminated by adding the inhibitors indicated above.
(§2) The kinetic constants of the recombinant purified Odc1p and Odc2p were determined by measuring the initial transport rate at various external [^14C]oxoglutarate concentrations, in the presence of a constant saturating internal concentration of 20 mM oxoglutarate.
(§3) The values were calculated from Lineweaver-Burk plots of the rate of [^14C]oxoglutarate versus substrate concentrations. The competing substrates at appropriate constant concentrations were added together with 0.1-2.0 mM [^14C]oxoglutarate to proteoliposomes containing 20 mM oxoglutarate and reconstituted with recombinant Odc1p or Odc2p. The data represent the means ±S.D. of at least three different experiments. n.d., not determined.

[5] = molecular target: T2, Odc2p; assay: Dependence on internal substrate of [14C]oxoglutarate uptake into proteoliposomes reconstituted with recombinant Odc2p; conditions: Odc2p; for [14C]oxoglutarate transport: proteoliposomes preloaded with 20 mM internal substrate, 0.6 mM [14C]oxoglutarate, 45 seconds; for [14C]oxoglutarate uptake with the internal substrate (in words): proteoliposomes preloaded with various substrates
Method: (§4) Reconstitution of the ODC proteins into liposomes—Purified ODC proteins were reconstituted by cyclic removal of the detergent with a hydrophobic column (13). The composition of the initial mixture used for reconstitution was: 200 μl of purified isoform (0.3-0.4 μg of protein), 70 μl of 10% Triton X-114, 100 μl of 10% phospholipids in the form of sonicated liposomes, 20 mM oxoglutarate (except where otherwise indicated), 10 mM Pipes (pH 7.0), 0.7 mg of cardiolipin (Sigma) and water to a final volume of 700 μl. These components were mixed thoroughly, and the mixture was recycled 13 times through an Amberlite column (Supelco) (3.0 cm×0.5 cm) preequilibrated with a buffer containing 10 mM Pipes (pH 7.0) and with the substrate at the same concentration as in the starting mixture. All operations were performed at 4° C., except the passages through Amberlite, which were carried out at room temperature.
as §1
(§5) The substrate specificity of purified Odc1p and Odc2p was investigated further by measuring the uptake of [^14C]oxoglutarate into proteoliposomes which had been preloaded with various substrates.
(§6) Proteoliposomes were preloaded internally with various substrates (concentration, 20 mM). Transport was started by adding [^14C]oxoglutarate (final concentration, 0.6 mM) and terminated after 45 seconds.

[6] = molecular target: T2, Odc2p; assay: Kinetic constants (Km, Vmax, Ki) of recombinant purified Odc2p in proteoliposomes
Method: as §1, §2, §3

[7] = molecular target: T1, Odc1p; assay: Dependence on internal substrate of [14C]oxoglutarate uptake into proteoliposomes reconstituted with recombinant Odc1p; conditions: Odc1p; for [14C]oxoglutarate transport: proteoliposomes preloaded with 20 mM internal substrate, 0.6 mM [14C]oxoglutarate, 45 seconds; for [14C]oxoglutarate uptake with the internal substrate (in words): proteoliposomes preloaded with various substrates
Method: as §4, §1, §5, §6

[8] = Odc1p, Lineweaver-Burk plots, 0.1-2.0 mM [14C]oxoglutarate, 20 mM internal oxoglutarate, means ±S.D., read-out: Ki (competition with [14C]oxoglutarate uptake)
[9] = Odc2p, Lineweaver-Burk plots, 0.1-2.0 mM [14C]oxoglutarate, 20 mM internal oxoglutarate, means ±S.D., read-out: Ki (competition with [14C]oxoglutarate uptake)

| SMILES | effect on efflux of [14C]oxoglutarate induced by external oxoglutarate (in words) [1] | Inhibition (%) of [14C]oxoglutarate/oxoglutarate exchange ([2]; 20 mM internal oxoglutarate, 0.4 mM [14C]oxoglutarate, 45 seconds, inhibitors 4 mM, except mercurials 10 μM, carboxyatractyloside 0.1 mM, N-ethylmaleimide and α-cyanocinnamate 2 mM) | inhibition of [14C]oxoglutarate/oxoglutarate exchange (in words) [2] | Inhibition (%) of [14C]oxoglutarate/oxoglutarate exchange [3] | inhibition of [14C]oxoglutarate/oxoglutarate exchange (in words) [3] | Ki [4, 8] | [14C]oxoglutarate transport [5] | [14C]oxoglutarate uptake with the internal substrate (in words) [5] | Ki [6, 9] | [14C]oxoglutarate transport [7] | [14C]oxoglutarate uptake with the internal substrate (in words) [7] | Ki [4] | Ki [6] |
| --- | --- | --- | --- | --- | --- | --- | --- | --- | --- | --- | --- | --- | --- |
| c1ccc(-c2ccnc3c2ccc2c(-c4ccccc4)ccnc23)cc1 [Bathophenanthroline] | prevented completely | 89% | inhibited strongly | 97% | inhibited strongly |  |  |  |  |  |  |  |  |
| O=C(O)CCCCC(=O)C(=O)O [2-Oxopimelate] |  |  |  |  |  | 1.83 ± 0.2 mM | 14.8 mmol/min per g protein | taken up efficiently | 1.64 ± 0.18 mM | 71.6 mmol/min per g protein | taken up efficiently |  |  |
| Cc1ncc(COP(=O)(O)O)c(C=O)c1O [Pyridoxal 5′-phosphate] | prevented completely |  | inhibited strongly | 92% | inhibited strongly |  |  |  |  |  |  |  |  |
| O=C(O)CCCC(=O)C(=O)O [2-Oxoadipate] |  |  |  |  |  | 0.26 ± 0.03 mM | 22.1 mmol/min per g protein | taken up efficiently | 0.31 ± 0.04 mM | 85.0 mmol/min per g protein | taken up efficiently |  |  |
| O=C(O)CC(O)(CC(=O)O)C(=O)O [Citrate] |  |  |  |  |  |  | 8.0 mmol/min per g protein | much lower activity |  | 28.6 mmol/min per g protein | much lower activity | 6 ± 0.8 mM | 5.9 ± 0.6 mM |
| O=C(O)C[C@H](O)C(=O)O [L-malate] |  |  |  |  |  | 1.32 ± 0.13 mM | 11.4 mmol/min per g protein | taken up efficiently | 1.37 ± 0.16 mM | 56.4 mmol/min per g protein | taken up efficiently |  |  |
